Measurements reported in publication PMC10526274, “Epithelial-Immune Cell Crosstalk Determines the Activation of Immune Cells In Vitro by the Human Cathelicidin LL-37 at Low Physiological Concentrations” (Biomolecules, 2023).
Values joined by “and” are separate entries in the source; they are usually repeats but may differ in a detail not shown here. Equal values may be shown once.

Test system: Caco-2/monocytes co-culture
Assay: Multiplex xMAP cytokine levels, Caco-2/monocytes co-culture stimulated with LL-37
Format: cell-based, human
Settings: monocytes/Caco-2 co-culture, 1 µM LL-37, 24 h, n=2
Description: Caco-2 cell line (ATCC HTB-37) was cultured in a humidified CO2-incubator (5% CO2, 37 °C) in the complete DMEM/F12 (1:1) medium (Gibco, Waltham, MA, USA) containing 10% fetal bovine serum (FBS, Gibco) and 1X antibiotic–antimycotic solution (Gibco). To stabilize the cell phenotype, Caco-2 cells have been subcultivated three times before seeding on the filter supports. Then, Caco-2 cells were seeded at a density of 2 × 10^5 cells/cm^2 onto 24-well Millicell cell culture inserts (PC, 0.4-μm pore size, 0.6 cm^2 surface area, cat. #PIHP01250) (Millipore, Burlington, MA, USA), precoated with 0.2% bovine gelatin (Sigma-Aldrich, Saint Louis, MO, USA). After seeding, Caco-2 cells were grown in the same complete medium with re-feeding every 2–3 days until polarization of the monolayer occurred. The functional polarity of the monolayers was developed when transepithelial electrical resistance (TEER) between the apical and basolateral surfaces of the monolayers reached […] as measured by the electrical resistance system Millicell-ERS Voltohmmeter (Millipore, Burlington, MA, USA). Grown cell monolayers were used in transport and cytokine production experiments between the 21st and 29th days.
Peripheral blood mononuclear cells (PBMCs) from a healthy donor were purchased from the American Type Culture Collection (ATCC PCS-800-011). Blood monocytes were isolated from PBMCs by plastic adhesion. Mature monocyte-derived dendritic cells (moDCs) were generated in vitro from peripheral blood monocytes, according to Nair et al.. Briefly, monocytes were cultured in a humidified CO2-incubator (5% CO2, 37 °C) in the complete RPMI-1640 medium (Gibco) with 10% FBS, antibiotics, and supplemented with a cytokine cocktail containing 500 U/mL rhIL-4 and 800 U/mL rhGM-CSF (both Sci-Store, Moscow, Russia). On the third day, the medium was replaced by the same fresh medium with FBS, antibiotics, and the cytokine cocktail. Induction of maturation of the immature monocyte-derived dendritic cells was performed on the 5th day by replacing the medium with the complete RPMI-1640 medium (Gibco) with 10% FBS and antibiotics, supplemented with a cytokine cocktail containing 500 U/mL rhIL-4, 800 U/mL rhGM-CSF (both Sci-Store, Moscow, Russia), and 100 U/mL rhTNF-α (Sigma-Aldrich), and subjected to subsequent incubation of the culture for 4 more days.
Primary blood monocytes, moDCs, and NKT cells were seeded in 600 µL of complete RPMI-1640 with 10% Human AB serum (Capricorn Scientific, Ebsdorfergrund, Germany) and supplemented with 1X antibiotic–antimycotic solution into the wells of 24-well plates at a density of 3–7 × 10^5 cells/well 24 h before the experiment. Then, 24 h later, the medium in each well was replaced by the same medium with 1 µM of LL-37 for the sample wells or fresh medium alone for the control wells, and the permeable inserts with the Caco-2 monolayer with TEER > 400 Ω × cm^2, containing 400 μL of the complete medium in their apical chamber, were immediately placed into the appropriate wells. Also, inserts with the Caco-2 monolayer were placed in cell-free wells of 24-well plates in the same complete RPMI-1640 medium with or without 1 µM of LL-37 as controls. Cells were kept in a CO2-incubator (5% CO2, 37 °C) for another 24 h. Then, culture medium from each well was collected, centrifuged, and frozen at −70 °C.
To quantitatively evaluate a broad spectrum of analytes secreted by human cell cultures at the protein level, multiplex xMAP technology was used. […]

In the case of “LL-37: the only human cathelicidin, host defense antimicrobial peptide of 37 a.a. residues, produced by solid-phase peptide synthesis”, the IL-2 level (control 1.07) is reported as 1.07 pg/mL, the FLT-3L level (control 1.18) is reported as 1.37 pg/mL and the IFNg level (control 1.33) is reported as 2.28 pg/mL. For the same substance, the IL-15 level (control 1.67) was 2.58 pg/mL, the IL-18 level (control 3.28) was 2.42 pg/mL and the TGF-a level (control 3.5) was 3.88 pg/mL. The GM-CSF level (control 3.75) was 18.58 pg/mL, the IL-4 level (control 6.54) was 8.01 pg/mL and the IL-9 level (control 6.65) was 8.94 pg/mL. For the same substance, the EGF level (control 8.06) was 10.26 pg/mL, the IFNa2 level (control 11.65) was 13.12 pg/mL and the IL-10 level (control 14.79, p = 0.0007) was 57.4 pg/mL and 57.47 pg/mL. For the same substance, the TNFb level (control 21.66, p = 0.015) was 30.56 pg/mL, the IL-1a level (control 22.02) was 53.04 pg/mL and the Fractalkine level (control 22.95) was 31.4 pg/mL. The MIP-1a level (control 27.72, p = 0.11) was 3622 pg/mL, the IL-1b level (control 29.14, p = 0.0072) was 104 pg/mL and 104.8 pg/mL and the “IL-12 (p40) level” value (control 34.49) was 56.57 pg/mL. The M-GSF level (control 35.52) was 157.86 pg/mL, the IL-1RA level (control 42.52) was 108.8 pg/mL and the IL-13 level (control 42.56) was 52.71 pg/mL. For the same substance, the FGF-2 level (control 48.6) was 52.5 pg/mL, the IL-22 level (control 48.87, p = 0.029) was 71 pg/mL and 71.9 pg/mL and the MIP-1b level (control 49.37, p = 0.017) was >3455↑ pg/ml. For the same substance, the TNFa level (control 87.19, p = 0.019) was 306 pg/mL and 306.44 pg/mL, the IL-27 level (control 88.48) was 119.16 pg/mL and the sCD40L level (control 92.05) was 88.6 pg/mL. For the same substance, the G-CSF level (control 181.87, p = 0.012) was 1150 pg/mL, the IP-10 level (control 191.78) was 3346 pg/mL and the PDGF-AA level (control 243.05) was 189.29 pg/mL. For the same substance, the MIG level (control 306.48, p = 0.0018) was 959 pg/mL and 959.23 pg/mL, the PDGF-AB/BB level (control 692.27) was 713.51 pg/mL and the MCP-3 level (control 707.64) was 4706 pg/mL. It also gave a VEGFa level (control 1586) of 2190 pg/mL, an IL-6 level (control 2266) of 5678 pg/mL and an MDC level (control 4385) of 1264 pg/mL. For the same substance, the GROa level (control 4827) was 4862 pg/mL, the MCP-1 level (control 12186) was 5364 pg/mL and the IL-8 level (control 15625) was 19839 pg/mL. The IL-7 level (control <0.30) was <0.30↓ pg/ml, the IL-5 level (control <0.35) was <0.35↓ pg/ml and the IL-3 level (control <0.55) was <0.55↓ pg/ml. For the same substance, the RANTES level (control <0.64) was 729.59 pg/mL, the IL-17A level (control <0.70) was 2.63 pg/mL and the “IL-12 (p70) level” value (control <1.71) was 2.3 pg/mL. For the same substance, the Eotaxin level (control <2.91) was <2.91↓ pg/ml, the IL-17F level (control <12.19) was <12.19↓ pg/ml and the IL-17E/IL-25 level (control <19.43) was <19.43↓ pg/ml.
